Measured values reported in patent publication US10000473B2, “Indazole derivatives useful as glucagon receptor antagonists” (Janssen Pharmaceutica NV, priority 2016, dated 2018).
Where “and” joins values, the source holds several entries; their conditions need not be identical. Equal values may be shown once.

Legend:
[1] = test system: GCG-mediated increases in blood glucose; assay: Glucagon challenge in vivo assay measuring blood glucose (normal dog glucagon challenge test); conditions: fasted male beagle dogs; for inhibition of GCG-mediated increases in blood glucose vs vehicle: glucagon 5 μg/kg intramuscular 90 min after dosing
Experimental: Glucagon Challenge In Vivo Assay Measuring Blood Glucose
The efficacy of a glucagon receptor antagonist was evaluated using a normal dog glucagon challenge test. Male beagle dogs were overnight fasted prior to the study. Test compound (at 3 mg/kg and 10 mg/kg for Compound #196 and at 10 mg/kg for Compounds #180, #248 and #253) or vehicle (0.5% hydroxypropyl methylcellulose) was dosed via oral gavage. Ninety minutes later, the dogs (1.5 years old, ˜9 Kg) were submitted to a glucagon challenge test by a single intramuscular injection of glucagon (Glucagon, rDNA origin, Eli Lilly, Indianapolis, Ind.) at dose of 5 μg/kg. Blood glucose levels were determined at times −10 min, 0 min (on challenge), 10 min, 20 min, 30 min, and 60 min after glucagon injection.

[2] = molecular target: T1, human GCGR (Homo sapiens, UniProt P47871); assay: Cellular functional assay, cAMP readout (glucagon-stimulated cAMP, LANCE TR-FRET); assay type: cell-based; conditions: HEK293 cells stably expressing full-length human GCGR; glucagon 100 pM; IC50 converted to Ki; read-out: Inhibition of cAMP Ki
T1 construct: expressed in transfected cells; host or cells: HEK293 (hGluc-1HEK), pcDNA3.1, G418 selection

[3] = 10 mg/kg oral gavage, glucagon 5 μg/kg intramuscular

T1 sequence (P47871 26-477): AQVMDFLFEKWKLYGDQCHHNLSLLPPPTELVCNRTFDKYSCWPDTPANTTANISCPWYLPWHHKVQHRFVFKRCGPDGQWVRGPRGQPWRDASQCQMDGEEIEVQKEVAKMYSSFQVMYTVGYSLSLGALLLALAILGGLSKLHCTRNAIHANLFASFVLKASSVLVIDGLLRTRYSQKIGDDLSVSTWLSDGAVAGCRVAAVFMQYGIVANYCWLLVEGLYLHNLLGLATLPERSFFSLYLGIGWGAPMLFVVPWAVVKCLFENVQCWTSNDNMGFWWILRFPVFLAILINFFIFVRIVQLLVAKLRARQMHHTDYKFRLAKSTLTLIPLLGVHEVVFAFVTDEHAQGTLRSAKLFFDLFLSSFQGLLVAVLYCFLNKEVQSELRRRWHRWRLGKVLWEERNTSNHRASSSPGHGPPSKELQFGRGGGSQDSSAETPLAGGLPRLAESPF

| SMILES | inhibition of GCG-mediated increases in blood glucose vs vehicle ([1]; 10 mg/kg oral gavage) | Ki [2] | further results |
| --- | --- | --- | --- |
| Cc1cc2c(cnn2[C@@H](CC(C)C)c2ccc(C(=O)NCCC(=O)O)cc2)cc1-c1ccc(C(F)(F)F)cc1Cl [Compound #196, 3-[[4-[(1S)-1-[5-[2-Chloro-4-(trifluoromethyl)phenyl]-6-methyl-indazol-1-yl]-3-methyl-butyl]benzoyl]amino]propanoic acid] | 23.9% | 32 nM | inhibition of GCG-mediated increases in blood glucose vs vehicle ([1]; 3 mg/kg oral gavage): 5.9% |
| Cc1cc(C(F)(F)F)ccc1-c1cc2cn([C@@H](CC(C)C)c3ccc(C(=O)NCCC(=O)O)cc3)nc2cc1C [Compound #248, 3-[[4-[(1 S)-3-Methyl-1-[6-methyl-5-[2-methyl-4-(trifluoromethyl)phenyl]indazol-2-yl]butyl]benzoyl]amino]propanoic acid] | 15% | 25 nM | – |
| Cc1c(-c2ccc(C(F)(F)F)cc2Cl)ccc2nn([C@@H](CC(C)C)c3ccc(C(=O)NCCC(=O)O)cc3)cc12 [Compound #180, 3-[[4-[(1S)-1-[5-[2-Chloro-4-(trifluoromethyl)phenyl]-4-methyl-indazol-2-yl]-3-methyl-butyl]benzoyl]amino]propanoic acid] | 28.9% | 25 nM (2×) and 20 nM | blood glucose levels during glucagon challenge compared with vehicle treated group [1, 3]: markedly reduced blood glucose levels; duration of blood glucose reducing effect after glucagon injection [1, 3]: more than 60 min |
| Cc1cc(C(F)(F)F)ccc1-c1cc2cnn([C@@H](CC(C)C)c3ccc(C(=O)NCCC(=O)O)cc3)c2cc1C [Compound #253, 3-[[4-[(1S)-3-Methyl-1-[6-methyl-5-[2-methyl-4-(trifluoromethyl)phenyl]indazol-1-yl]butyl]benzoyl]amino]propanoic acid] | 17.1% | 14 nM | – |
| COc1c(-c2ccc(C(F)(F)F)cc2Cl)ccc2c1cnn2[C@@H](CC(C)C)c1ccc(C(=O)NCCC(=O)O)cc1 [Compound #201, 3-[[4-[(1S)-1-[5-[2-Chloro-4-(trifluoromethyl)phenyl]-4-methoxy-indazol-1-yl]-3-methyl-butyl]benzoyl]amino]propanoic acid] | – | 30 nM | – |
| Cc1cc(C(F)(F)F)ccc1-c1cc2cnn(C(CC(C)C)c3ccc(C(=O)NCCC(=O)O)cc3)c2cc1Cl (centres unmarked) [Compound #261, 3-[[4-[1-[6-Chloro-5-[2-methyl-4-(trifluoromethyl)phenyl]indazol-1-yl]-3-methyl-butyl]benzoyl]amino]propanoic acid] | – | 105 nM | – |
| Cc1cc(C(F)(F)F)ccc1-c1ccc2c(cnn2C(CCC(F)(F)F)c2ccc(C(=O)NCCC(=O)O)cc2)c1 (centres unmarked) [Compound #44, 3-[[4-[4,4,4-Trifluoro-1-[5-[2-methyl-4-(trifluoromethyl)phenyl]indazol-1-yl]butyl]benzoyl]amino]propanoic acid] | – | 160 nM | – |
| Cc1cc2c(cnn2C(CC(C)C)c2ccc(C(=O)NCCC(=O)O)cc2)cc1-c1cc2cc(F)ccc2s1 (centres unmarked) [Compound #158, 3-[[4-[1-[5-(5-Fluorobenzothiophen-2-yl)-6-methyl-indazol-1-yl]-3-methyl-butyl]benzoyl]amino]propanoic acid] | – | 190 nM | – |
| CCCCCCC(c1ccc(C(=O)NCCC(=O)O)cc1)n1ncc2cc(-c3ccc(C(F)(F)F)cc3)ccc21 (centres unmarked) [compound 159] | – | 155 nM | – |
| CC(C)CC(c1ccc(C(=O)NCCC(=O)O)nc1)n1ncc2cc(-c3cc4ccccc4s3)ccc21 (centres unmarked) [compound 48] | – | 470 nM | – |
| Cc1c(-c2ccc(C(C)(C)C)cc2)ccc2nn(C(CC(C)C)c3ccc(C(=O)NCCC(=O)O)cc3)cc12 (centres unmarked) [Compound #78, 3-(4-(1-(5-(4-(tert-Butyl)phenyl)-4-methyl-2H-indazol-2-yl)-3-methylbutyl)benzamido)propanoic acid] | – | 35 nM | – |
| CC(C)CC(c1ccc(C(=O)NCCC(=O)O)nc1)n1cc2cc(-c3ccc(C(C)(C)C)cc3)ccc2n1 (centres unmarked) [Compound #2] | – | 700 nM | – |
| CC(C)(C)CC(c1ccc(C(=O)NCCC(=O)O)cc1)n1ncc2cc(-c3ccc(C(F)(F)F)cc3)ccc21 (centres unmarked) [compound 231] | – | 95 nM | – |
